Source: US11623009B2, “Bone fracture repair by targeting of agents that promote bone healing” (Purdue Research Foundation, priority 2015, dated 2023)

Tests used:
[1] = mouse, in vivo
Method: CD4 Swiss mice (30-35 g) acquired from Harlan laboratories were used for these experiments.
The study was performed on 3 groups of mice with 5 mice per group. Two weeks following fracture induction each mouse received 0.1 mCi (0.1 mL) of dose. Animals were then returned to their cages until euthanasia by CO2 overdose at the desired time point (1 h, 4 h, 24 h). Animals were imaged using MiLabs U-SPECT-II/CT. 3D reconstructions were performed using Image J software.
SPECT/CT biodistribution.

[2] = 24 h organ biodistribution of radio-iodinated micelles and 6BIO in mice with femoral fracture; format: in vivo, CD4 Swiss mice
Method: Radio-iodination of micelles and 6BIO. The stannylated unimers and stannylated 6BIO (0.3-0.5 μmol) were dissolved in 100 μL DMF. The solutions were transferred to Wheaton V-vials containing a solution of [^125I]NaI (5.0 mCi) in 100 μL DMF phosphate-buffered saline (PBS) (pH 7.4). Chloramine-T was added, and the reaction mixture stirred for 15 min at ambient temperature. Purification of the iodinated micelles was performed using a LH20 column eluted with MeOH. Iodinated 6BIO was dissolved in EtOAc and was washed twice with water. The solvent of all three reactions was evaporated using a stream of nitrogen, and the residue was dissolved with PBS (pH 7.4) to obtain solutions with an activity concentration of 370 kBq/100 μL. The overall radiochemical yield was ca. 10%.
Murine fracture induction. […] The skin incision was made medial parapetellar.
Injection and dissection techniques/counting for 24 h biodistribution. From the iodinated products described previously 1 uCi/mL solutions were made in sterile PBS. […] Two weeks following fracture induction, each mouse received a 0.1 μCi (0.1 mL) dose of the radio-iodinated linear micelles, branched micelle, or free drug. Animals were then placed back in their cages for 24 h. At 24 h they were sacrificed using CO2 excess. Blood was drawn from a cardiopuncture and all other organs measured were removed (lungs, liver, spleen, kidneys, fractured femur, healthy femur). The activity was counted using Packard Cobra Auto-Gamma and was normalized by dividing the count rate by the weights of each organ.
Biodistribution: Organ biodistribution at 24 h. […] Although a cleavable linker is necessary for therapy studies, it may pose a problem with biodistribution studies. At 24 h of an in vivo study, 30% of the drug may be released. In a biodistribution study, premature release would not give accurate information on how well the targeting ligand is able to remain in the fracture site. A non-degradable oxime ether linker replaced the oxime-ester linker in the micelles for biodistribution. […]

solubility in water = format: physicochemical; settings: 6BIO by itself
Text: The drug being attached to the unimers was a GSK3β inhibitor, 6BIO. […] By including 6BIO in the unimer design, the unimer solubilized the drug while the drug stabilized the micelle. The oxime of 6BIO was first conjugated to the carboxylic group of a 4-pentynoic acid derivative and then clicked to the azide-containing unimer by the alkyne on the 4-pentynoic acid derivative. Upon completion of the click reaction, the micelle was purified, dried, and formed micelles upon reconstitution in PBS.

[3] = tested on: stabilized femoral fracture; assay: fracture healing efficacy, μCT analysis of fracture callus; format: in vivo, male CD4 Swiss Webster mice; settings: 6.9 nmol/kg/dose i.v. every 3 days, 3 weeks after fracture, mean±SEM
Method: Mouse handling. All animal experiments were performed in accordance to Purdue University's IACUC approved protocols. Forty mice (10 per group) 31-35 g male CD4 Swiss Webster mice were purchased from Harlan laboratories. Mice were able to move freely throughout the experiment. At 3 weeks following fracture induction, mice were euthanized using a CO2 overdose. […] Mouse bone fracture. […] The skin incision was made over the knee. The patella was then dislocated and a small hole was made under the patella with a 25 guage needle. The needle was used to ream the intramedullary canal. A 22 guage locking nail was produced by flattening both ends was then inserted. The incision site was sutured and the femur was then fractured using a three-point bending device. […] Mouse dosing. Mice were dosed intravenously by tail vein injection every 3 days starting on the day of fracture induction. […] Mice receiving drug dosages were administered drugs at the follow dose 6.9 nmol/kg/dose in approximately 0.1 mL of PBS. PBS control mice received 0.1 mL of PBS. μCT analysis. […] The bones were scanned while immersed in PBS to prevent dehydration. Scanco μCT software was used to analyze the images for bone density, total volume (TV), relative bone volume (BV/TV), trabecular thickness (Tb.Th), and trabecular spacing (Tb.Sp). Volumes of interest included the fracture callus, and both cortical and trabecular bone between the points on the cortical bone where the bone was fractured. Statistical analysis. Statistical analyses were calculated using Prism GraphPad software. Data is presented in results as mean±standard error of the mean (SEM).

[4] = 24 h after injection, two weeks after fracture, 125I-labelled, non-degradable oxime ether linker

Structure (SMILES): O=C1Nc2ccccc2C1=C1Nc2cc(Br)ccc2C1=NO [6BIO, 6′-bromoindirubin-3′-oxime]
- SPECT/CT distribution at 1 h [1]: primarily found in the stool
- SPECT/CT distribution at 4 h [1]: primarily contained in the bowel
- SPECT/CT distribution at 24 h [1]: appears to be cleared
- accumulation in the lungs, liver, and spleen ([2]; 24 h): high accumulation
- accumulation in fractured femurs [2, 4]: 0.4±0.05% of injected dose/gram
- accumulation in healthy femurs [2, 4]: 0.5±0.10% of injected dose/gram
- solubility in water (solubility in water): not soluble in water
- Tb. Sp (trabecular spacing) [3]: 0.191 ± 0.009 mm
- bone density of fracture callus [3]: 337.8±14.2 mg HAp/cm^3
- BV/TV (relative bone volume) ([3]; listed as Free 6BIO): 0.338 ± 0.015
- TV (callus total volume) ([3]; listed as Free 6BIO): 48.2 ± 5.8 mm^3
- Tb. Th (trabecular thickness) ([3]; listed as Free 6BIO): 0.134 ± 0.007 mm
- BV/TV (relative bone volume) ([3]; listed as free 6BIO): 0.338±0.015
- TV (callus total volume) ([3]; listed as free 6BIO): 48.2±5.8 mm^3
- Tb. Th (trabecular thickness) ([3]; listed as free 6BIO): 0.134±0.007 mm
